The results in this text go back to PubChem BioAssay (NCI).

The structures appear in SMILES notation.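 Briefly, cells in 96-well plates were exposed to five compound concentrations for 48 h, and endpoints were estimated by linear interpolation. TGI: concentration producing complete growth inhibition.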

Some test systems named below: EKVX NSCLC; SW-620 colon; U251 CNS; KM12 colon; HT29 colon; OVCAR-8 ovarian; NCI-H522 lung; SN12C renal; DU-145 prostate; UO-31 renal; SNB-19 CNS.
Holding throughout (experiment): NCI tumour cell line growth inhibition, 48 h

For `CCNC(=S)NNC(=O)c1ccccc1Nc1ccccc1C(=O)NNC(=S)NCC`, the TGI with EKVX NSCLC, in the test on SW-620 colon, in the test with U251 CNS, with KM12 colon, in the test with HT29 colon and in the test with OVCAR-8 ovarian was > 100 µM throughout. Moreover, the TGI with NCI-H522 lung, in the test on SN12C renal, in the test with DU-145 prostate, with UO-31 renal and in the test with SNB-19 CNS was > 100 µM in each case.

Take `CCSc1nc(N/N=C/c2cccs2)c2cnn(CO)c2n1`: the TGI was 25.6 µM in the test on EKVX NSCLC; 24.2 µM with SW-620 colon; 30.1 µM with U251 CNS; 12.4 µM in the test on KM12 colon; 13.4 µM with HT29 colon; 14.9 µM in the test on OVCAR-8 ovarian. Further, the TGI in the test on NCI-H522 lung was determined as 15.5 µM; with SN12C renal, 30.6 µM; in the test on DU-145 prostate it was 24.3 µM; in the test on UO-31 renal, 10.2 µM; in the test on SNB-19 CNS, 27.1 µM.

`CC[C@]12C=CCN3CC[C@@]4(c5cc(Br)c(OC)cc5N(C)[C@H]4[C@@](O)(C(=O)NC(Cc4c[nH]c5ccccc45)C(=O)OC)[C@@H]1O)[C@@H]32` (some centres not stated): the TGI in the test on EKVX NSCLC, in the test with SW-620 colon, in the test on U251 CNS, in the test with KM12 colon, in the test on HT29 colon and with OVCAR-8 ovarian was > 100 µM throughout. The TGI in the test on NCI-H522 lung, with SN12C renal, with DU-145 prostate, in the test with UO-31 renal and in the test on SNB-19 CNS was > 100 µM in each case.

With `COc1ccc(-c2oc3cc(O)c(OC)c(O)c3c(=O)c2O)cc1`, the TGI is > 100 µM in the test on EKVX NSCLC; > 70.1 µM in the test with SW-620 colon; 30.2 µM with U251 CNS; > 100 µM in the test with KM12 colon; > 100 µM with HT29 colon; > 75.3 µM with OVCAR-8 ovarian. In addition, the TGI with NCI-H522 lung was 57.8 µM; in the test with SN12C renal, > 75.2 µM; in the test with DU-145 prostate, > 24.9 µM; in the test on UO-31 renal, > 61.3 µM; in the test with SNB-19 CNS, > 100 µM.

As for `O=c1c2c3c(sc2nc2n1NC=NN2)CCCC3`, the TGI came out at 35.9 µM in the test on EKVX NSCLC; 38.7 µM with SW-620 colon; 35 µM in the test with U251 CNS; 34.1 µM in the test with KM12 colon; 38.9 µM in the test on HT29 colon; 58.2 µM with OVCAR-8 ovarian. Besides, the TGI is 36.4 µM in the test on NCI-H522 lung; 39.6 µM with SN12C renal; > 90.4 µM in the test on DU-145 prostate; > 64.3 µM in the test with UO-31 renal; > 71.5 µM in the test on SNB-19 CNS.

For `CCOC(=O)NN(C(=O)OCC)C(C(=O)c1ccccc1)N(NC(=O)OCC)C(=O)OCC`, the TGI with EKVX NSCLC, in the test on SW-620 colon, in the test on U251 CNS, in the test on KM12 colon, with HT29 colon and in the test with OVCAR-8 ovarian was > 100 µM in each case. Further, the TGI in the test on NCI-H522 lung, in the test with SN12C renal, with DU-145 prostate, in the test on UO-31 renal and in the test on SNB-19 CNS was > 100 µM throughout.

In the case of `NC1=Nc2ccccc2Sc2cccc(F)c21`, the TGI in the test with EKVX NSCLC, in the test with SW-620 colon, in the test on U251 CNS, in the test with KM12 colon, in the test with HT29 colon and in the test with OVCAR-8 ovarian was > 100 µM in each case. For the same compound, the TGI with NCI-H522 lung, in the test on SN12C renal, in the test with DU-145 prostate, in the test with UO-31 renal and in the test with SNB-19 CNS was > 100 µM each time.

For `Nc1ccn(C2CCC(COP(=O)(O)OCC(O)COP(=O)(O)OCC3OC(n4cc(F)c(=O)[nH]c4=O)CC3O)O2)c(=O)n1` (configuration not stated), the TGI in the test with EKVX NSCLC, in the test on SW-620 colon, in the test with U251 CNS, in the test on KM12 colon, with HT29 colon and with OVCAR-8 ovarian was > 100 µM in each case. The TGI with NCI-H522 lung, in the test on SN12C renal, with DU-145 prostate, with UO-31 renal and in the test with SNB-19 CNS was > 100 µM each time.

`N#CC1=C(N)N(/N=C/c2ccco2)C(c2ccco2)C1(C#N)C#N` (configuration not stated): the TGI in the test on EKVX NSCLC was 47.3 µM; with SW-620 colon, 24.5 µM; with U251 CNS it was 36.1 µM; in the test with KM12 colon, 28.7 µM; with HT29 colon it was 32.2 µM; in the test with OVCAR-8 ovarian it was 41.6 µM. In addition, the TGI in the test on NCI-H522 lung was 31.1 µM; in the test with SN12C renal, 70 µM; in the test with DU-145 prostate, 32.1 µM; in the test on UO-31 renal it was 34.4 µM; in the test with SNB-19 CNS it was 39.2 µM.

Turning to `CNC(=O)CNC(=O)N(C[C@@H]1CCCN1C(=O)[C@H](CC(C)C)NC(=O)OC(C)(C)C)C(C)C`, the TGI in the test with EKVX NSCLC, in the test with SW-620 colon, in the test on U251 CNS, in the test with KM12 colon, with HT29 colon and in the test with OVCAR-8 ovarian was > 100 µM each time. Besides, the TGI with NCI-H522 lung, in the test with SN12C renal, in the test on DU-145 prostate, in the test on UO-31 renal and in the test with SNB-19 CNS was > 100 µM throughout.

Consider `CCN(C(=O)N[C@H](C(=O)N[C@@H](CSC)C(=O)N[C@@H](C)C(=O)OC)C(C)C)c1ccccc1`, for which the TGI with EKVX NSCLC amounted to 28.7 µM; with SW-620 colon, 28 µM; in the test with U251 CNS, 29.4 µM; with KM12 colon it was 29.1 µM; in the test with HT29 colon it was 27.2 µM; with OVCAR-8 ovarian it was 38.2 µM. Moreover, the TGI in the test with NCI-H522 lung was determined as 22.3 µM; with SN12C renal, 43.1 µM; in the test on DU-145 prostate it was 31.2 µM; in the test with UO-31 renal, 31.3 µM; with SNB-19 CNS, 33.4 µM.

`Cc1ccnc(Nc2[nH]c(C(=O)c3ccc(Cl)cc3)c(N)c2C(=S)Nc2ccccc2)c1`: the TGI is 44.6 µM in the test on EKVX NSCLC; 69.6 µM in the test on SW-620 colon; 33.2 µM in the test on U251 CNS; 32.4 µM with KM12 colon; 28.6 µM in the test with HT29 colon; 34.5 µM with OVCAR-8 ovarian. Also, the TGI came out at 27.1 µM in the test on NCI-H522 lung; 31 µM in the test on SN12C renal; 63.7 µM with DU-145 prostate; 37.2 µM with UO-31 renal; 64.1 µM in the test on SNB-19 CNS.
